Laboratory results from patent US20160176867A1, “MODIFIED BET-PROTEIN-INHIBITING DIHYDROQUINOXALINONES AND DIHYDROPYRIDOPYRAZINONES” (BAYER PHARMA AKTIENGESELLSCHAFT, priority 2013, published 2016).

Legend:
[1] = biological target: T1, BRD4 bromo domain 1 [BRD4(1)] (Homo sapiens, UniProt O60885); test: BRD4/acetylated peptide H4 binding assay (TR-FRET), BRD4 bromo domain 1; details: inhibition of BRD4(1)/Ac-H4 peptide interaction
T1 construct: N-terminally His6-tagged BRD4(1) (amino acids 67-152); made in house; host or cells: E. coli
Outline: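 TR-FRET (665/620 nm ratio) measuring displacement of biotinylated tetra-acetylated H4 peptide from His6-BRD4(1) (aa 67-152, E. coli; typically 10 nM) at pH 7.5. Compound (11 concentrations, 0.1 nM–20 μM, duplicates) was preincubated 10 min at 22°C, then 1 h at 22°C and ≥3 h at 4°C; IC50 from 4-parameter fit normalized to DMSO and no-BRD4 controls.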

[2] = biological target: T2, BRD4 bromo domain 2 [BRD4(2)] (Homo sapiens, UniProt O60885); test: BRD4/acetylated peptide H4 binding assay (TR-FRET), BRD4 bromo domain 2; details: inhibition of BRD4(2)/Ac-H4 peptide interaction
T2 construct: N-terminally His6-tagged BRD4(2) (amino acids 357-445); made in house; host or cells: E. coli
From the text: Protein-Protein Interaction Assay: BRD4/Acetylated Peptide H4 Binding Assay
To assess the BRD4(2) binding strength of the substances described in this application, the ability thereof to inhibit the interaction between BRD4(2) and acetylated histone H4 in a dose-dependent manner was quantified.
For this purpose, a time-resolved fluorescence resonance energy transfer (TR-FRET) assay was used, which measures the binding between N-terminally His6-tagged BRD4(2) (amino acids 357-445) and a synthetic acetylated histone H4 (Ac-H4) peptide with sequence SGRGK(Ac)GGK(Ac)GLGK(Ac)GGAK(Ac)RHRKVLRDNGSGSK-biotin. The recombinant BRD4(2) protein produced in-house according to Filippakopoulos et al., Nature, 2010, 468:1119-1123 and Cell, 2012, 149:214-231, was expressed in E. coli and purified by means of (Ni-NTA) affinity and (Sephadex G-75) size exclusion chromatography. The Ac-H4 peptide can be purchased, for example, from Biosyntan (Berlin, Germany).
In the assay, typically 11 different concentrations of each substance (0.1 nM, 0.33 nM, 1.1 nM, 3.8 nM, 13 nM, 44 nM, 0.15 μM, 0.51 μM, 1.7 μM, 5.9 μM and 20 μM) were analysed as duplicates on the same microtitre plate. For this purpose, 100-fold concentrated solutions in DMSO were prepared by serial dilutions (1:3.4) of a 2 mM stock solution into a clear, 384-well microtitre plate (Greiner Bio-One, Frickenhausen, Germany). From this, 50 nl were transferred into a black test plate (Greiner Bio-One, Frickenhausen, Germany). The test was started by the addition of 2 μl of a 2.5-fold concentrated BRD4(2) solution (final concentration typically 100 nM in the 5 μl of reaction volume) in aqueous assay buffer [50 mM HEPES pH 7.5, 50 mM sodium chloride (NaCl); 50 mM potassium fluoride (KF); 0.25 mM CHAPS and 0.05% serum albumin (BSA)] to the substances in the test plate. This was followed by a 10-minute incubation step at 22° C. for the pre-equilibration of putative complexes between BRD4(2) and the substances. Subsequently, 3 μl of a 1.67-fold concentrated solution (in assay buffer) consisting of Ac-H4 peptide (83.5 nM) and TR-FRET detection reagents [83.5 nM anti-6His-XL665 (Cisbio Bioassays, Codolet, France) and 12.52 nM streptavidin-Eu), (Perkin Elmer, #W1024)] in assay buffer were added.
The mixture was then incubated in the dark at 22° C. for one hour and then at 4° C. for at least 3 hours and for no longer than overnight. The formation of BRD4(2)/Ac-H4 complexes was determined by the measurement of the resonance energy transfer from the streptavidin-Eu chelate to the anti-6His-XL665 antibody present in the reaction. For this purpose, the fluorescence emission was measured at 620 nm and 665 nm after excitation at 330-350 nm in a TR-FRET measuring instrument, for example a Rubystar or Pherastar (both from BMG Lab Technologies, Offenburg, Germany) or a Viewlux (Perkin-Elmer). The ratio of the emissions at 665 nm and at 622 nm was taken as an indicator of the amount of BRD4(2)/Ac-H4 complexes formed.
The data (ratios) obtained were normalized, with 0% inhibition corresponding to the mean from the measurements for a set of controls (typically 32 data points) in which all the reagents were present. In these, in place of test substances, 50 nl of DMSO (100%) were used. Inhibition of 100% corresponded to the mean from the measurements for a set of controls (typically 32 data points) in which all the reagents except BRD4(2) were present. The IC50 was determined by regression analysis based on a 4-parameter equation (minimum, maximum, IC50, Hill; Y=max+(min−max)/(1+(X/IC50)Hill)).

| SMILES | IC50 [1] | IC50 [2] |
| --- | --- | --- |
| CC(C)N1c2nc(Nc3cccc(C(=O)NC4CCN(C)CC4)c3)ccc2N(C)C(=O)[C@H]1C [Example 94, 3-{[(3R)-4-isopropyl-1,3-dimethyl-2-oxo-1,2,3,4-tetrahydropyrido[2,3-b]pyrazin-6-yl]amino}-N-(1-methylpiperidin-4-yl)benzamide] | 0.467 µM | 0.115 µM |
| C[C@@H]1C(=O)N(C)c2ccc(Nc3cccc(C(=O)NC4CCN(C)CC4)c3)nc2N1c1ccc(F)cc1 (stereo in doubt) [Example 115, 3-{[(3R)-4-(4-fluorophenyl)-1,3-dimethyl-2-oxo-1,2,3,4-tetrahydropyrido[2,3-b]pyrazin-6-yl]amino}-N-(1-methylpiperidin-4-yl)benzamide] | 0.379 µM | 0.706 µM |
| CC(C)N1CCN(C(=O)c2cccc(Nc3ccc4c(n3)N(Cc3ccccc3)[C@H](C)C(=O)N4C)c2)CC1 [Example 76, (3R)-4-benzyl-6-({3-[(4-isopropylpiperazin-1-yl)carbonyl]phenyl}-amino)-1,3-dimethyl-3,4-dihydropyrido[2,3-b]pyrazin-2(1H)-one] | 0.143 µM | 0.108 µM |
| C[C@@H]1C(=O)N(C)c2ccc(Nc3cccc(S(=O)(=O)N(C)C)c3)cc2N1Cc1ccccc1 [Example 69, 3-{[(3R)-4-benzyl-1,3-dimethyl-2-oxo-1,2,3,4-tetrahydroquinoxalin-6-yl]amino}-N,N-dimethyl-benzenesulphonamide] | 0.496 µM | 0.063 µM |
| CC1C(=O)N(C)c2ccc(Nc3cccc(S(=O)(=O)N4CCN(C)CC4)c3)nc2N1c1ccc(N2CCN(C(=O)OC(C)(C)C)CC2)cc1 (stereo not drawn) [Example 67, tert-butyl 4-{4-[1,3-dimethyl-6-({3-[(4-methylpiperazin-1-yl)sulphonyl]phenl}-amino)-2-oxo-2,3-dihydropyrido[2,3-b]pyrazin-4(1H)-yl]phenyl}piperazine-1-carboxylate] | 4.38 µM | 5.19 µM |
| COCCN1c2nc(Nc3cccc(C(=O)NC4CCN(C)CC4)c3)ccc2N(C)C(=O)[C@H]1C (stereo in doubt) [Example 119, 3-{[(3R)-4-(2-methoxyethyl)-1,3-dimethyl-2-oxo-1,2,3,4-tetrahydropyrido[2,3-b]pyrazin-6-yl]amino}-N-(1-methylpiperidin-4-yl)benzamide] | 0.742 µM | 0.428 µM |
| COc1ccc(CN2c3cc(Nc4cccc(S(=O)(=O)N5CCOCC5)c4)ccc3N(C)C(=O)[C@H]2C)cc1 [Example 11, (3R)-4-(4-Methoxybenzyl)-1,3-dimethyl-6-{[3-(morpholin-4-ylsulphonyl)phenyl]amino}-3,4-dihydroquinoxalin-2(1H)-one] | 0.208 µM | 0.048 µM |
| C[C@@H]1C(=O)N(C)c2ccc(Nc3cccc(S(=O)(=O)N(C)C)c3)cc2N1C1CCN(C(=O)OC(C)(C)C)CC1 [Example 68, tert-butyl 4-[(2R)-7-{[3-(dimethylsulphamoyl)-phenyl]amino}-2,4-dimethyl-3-oxo-3,4-dihydroquinoxalin-1(2H)-yl]piperidine-1-carboxylate] | 0.433 µM | 0.076 µM |
| COCCN1c2nc(Nc3cccc(C(=O)NC4CCN(C)CC4)c3)ccc2N(C)C(=O)[C@@H]1C (stereo in doubt) [Example 120, 3-{[(3S)-4-(2-methoxyethyl)-1,3-dimethyl-2-oxo-1,2,3,4-tetrahydropyrido[2,3-b]pyrazin-6-yl]amino}-N-(1-methylpiperidin-4-yl)benzamide] | 6.87 µM | 4.46 µM |
| C[C@@H]1C(=O)N(C)c2ccc(Nc3cccc(C(=O)N4CCN(C)CC4)c3)nc2N1C1CCN(C(=O)OC(C)(C)C)CC1 [Example 78, tert-butyl 4-[(3R)-1,3-dimethyl-6-({3-[(4-methylpiperazin-1-yl)carbonyl]phenyl}-amino)-2-oxo-2,3-dihydropyrido[2,3-b]pyrazin-4(1H)-yl]piperidine-1-carboxylate] | 0.151 µM | 0.157 µM |

Other lines, results leading:

| IC50 [1] | IC50 [2] | SMILES |
| --- | --- | --- |
| 0.196 µM | 0.247 µM | C[C@@H]1C(=O)N(C)c2ccc(Nc3cccc(C(=O)NC4CCC(NC5CCN(C)CC5)CC4)c3)nc2N1C1CCOCC1 (stereo partly drawn) [Example 80, 3-{[(3R)-1,3-dimethyl-2-oxo-4-(tetrahydro-2H-pyran-4-yl)-1,2,3,4-tetrahydropyrido[2,3-b]pyrazin-6-yl]amino}-N-{4-[(1-methylpiperidin-4-yl)amino]cyclohexyl} benzamide] |
| 0.399 µM | 0.497 µM | COc1ccc(Nc2ccc3c(n2)N(C2CCOCC2)[C@H](C)C(=O)N3C)cc1C(=O)NC1CCC(N2CCC(F)(F)CC2)CC1 (stereo partly drawn) [Example 89] |
| 0.163 µM | 0.158 µM | Cc1ccc(Nc2ccc3c(n2)N(C2CCOCC2)[C@H](C)C(=O)N3C)cc1S(N)(=O)=O [Example 63, 5-{[(3R)-1,3-dimethyl-2-oxo-4-(tetrahydro-2H-pyran-4-yl)-1,2,3,4-tetrahydropyrido[2,3-b]pyrazin-6-yl]amino}-2-methylbenzene-sulphonamide] |
| 0.21 µM | 0.227 µM | COc1ccc(Nc2ccc3c(n2)N(C2CCOCC2)[C@H](C)C(=O)N3C)cc1C(=O)NC1CCN(C)CC1 [Example 81, 5-{[(3R)-1,3-dimethyl-2-oxo-4-(tetrahydro-2H-pyran-4-yl)-1,2,3,4-tetrahydropyrido[2,3-b]pyrazin-6-yl]amino}-2-methoxy-N-(1-methylpiperidin-4-yl)benzamide] |
| 0.2 µM | 0.265 µM | C[C@@H]1C(=O)N(C)c2ccc(Nc3cccc(S(=O)(=O)N4CC5(CCC5)C4)c3)nc2N1C1CCN(C(=O)OC(C)(C)C)CC1 [Example 60, tert-butyl 4-[(3R)-6-{[3-(2-azaspiro[3.3]hept-2-ylsulphonyl)phenyl]-amino}-1,3-dimethyl-2-oxo-2,3-dihydropyrido[2,3-b]pyrazin-4(1H)-yl]piperidine-1-carboxylate] |
| 0.268 µM | 0.155 µM | C[C@@H]1C(=O)N(C)c2ccc(Nc3cccc(C(=O)NCCN4CCN(C)CC4)c3)nc2N1C1CCCCC1 [Example 84, 3-{[(3R)-4-cyclohexyl-1,3-dimethyl-2-oxo-1,2,3,4-tetrahydropyrido[2,3-b]pyrazin-6-yl]amino}-N-[2-(4-methlpiperazin-1-yl)ethyl]benzamide] |
| 0.322 µM | 0.127 µM | C[C@@H]1C(=O)N(C)c2ccc(Nc3cccc(C(=O)NC4CCC(O)CC4)c3)nc2N1C1CCCCC1 (stereo partly drawn) [Example 86, 3-{[(3R)-4-cyclohexyl-1,3-dimethyl-2-oxo-1,2,3,4-tetrahydropyrido[2,3-b]pyrazin-6-yl]amino}-N-(4-hydroxycyclohexyl)-benzamide] |
| 0.501 µM | 0.573 µM | C[C@@H]1C(=O)N(C)c2ccc(Nc3cccc(C(=O)NC4CCN(C)CC4)c3)nc2N1C1CCC(C)(C)CC1 [Example 96, 3-{[(3R)-4-(4,4-dimethylcyclohexyl)-1,3-dimethyl-2-oxo-1,2,3,4-tetrahydropyrido[2,3-b]pyrazin-6-yl]amino}-N-(1-methylpiperidin-4-yl)benzamide] |
